Assay [1] has as its system Escherichia coli. Description: Antibacterial activity against Escherichia coli assessed as bacterial growth inhibition by agar streak dilution assay. The assay is classed as functional.
In assay [2] the test system is Klebsiella pneumoniae. Description: Antibacterial activity against Klebsiella pneumoniae assessed as bacterial growth inhibition by agar streak dilution assay. The assay is classed as functional.
Assay [3] relates to Staphylococcus aureus. The experiment in a line: Antibacterial activity against Staphylococcus aureus assessed as bacterial growth inhibition by agar streak dilution assay. The assay is classed as functional.
Assay [4] concerns Escherichia coli. The experiment in a line: Antibacterial activity against Escherichia coli assessed as bacterial growth inhibition by agar well diffusion assay. The assay is classed as functional, organism-based. In general terms: A growth-free zone around the sample is the usual read-out of agar diffusion tests.
For assay [5], the system named is Pseudomonas aeruginosa. The experiment in a line: Antibacterial activity against Pseudomonas aeruginosa assessed as bacterial growth inhibition by agar well diffusion assay. The assay is classed as functional, organism-based.
Assay [6] has as its system Staphylococcus aureus. The experiment in a line: Antibacterial activity against Staphylococcus aureus assessed as bacterial growth inhibition by agar well diffusion assay. The assay is classed as functional, organism-based.
For assay [7], the system named is Aspergillus niger. Description: Antifungal activity against Aspergillus niger assessed as fungal growth inhibition by agar well diffusion assay. The assay is classed as functional.
In assay [8] the test system is Candida albicans. The experiment in a line: Antifungal activity against Candida albicans assessed as fungal growth inhibition by agar well diffusion assay. The assay is classed as functional.
Assay [9] deals with Escherichia coli. The experiment in a line: Antibacterial activity against Escherichia coli ATCC 8739 assessed as bacterial growth inhibition by agar dilution method. The assay is classed as functional. On the technique in general: In agar dilution, organisms are placed on agar that contains the substance at set levels.
The subject of assay [10] is Klebsiella pneumoniae. The experiment in a line: Antibacterial activity against Klebsiella pneumoniae ATCC 10031 assessed as bacterial growth inhibition by agar dilution method. The assay is classed as functional.
The subject of assay [11] is Enterobacter cloacae. Description: Antibacterial activity against Enterobacter cloacae PTCC 1003 assessed as bacterial growth inhibition by agar dilution method. The assay is classed as functional.
A short description of assay [12]: Anticancer activity against EAC cell assessed as cell growth inhibition measured after 24 to 72 hrs by MTT assay. The assay is classed as functional, cell-based. The following applies: Ehrlich.
Assay [13] concerns HT-29. The experiment in a line: Anticancer activity against human HT-29 cell assessed as cell growth inhibition measured after 24 to 72 hrs by MTT assay. The assay is classed as functional, cell-based. (Tetrazolium assays rely on reduction of a dye to a coloured formazan, in cell work by metabolically active cells.)
For assay [14], the system named is WRL68. The experiment in a line: Anticancer activity against human WRL68 cell assessed as cell growth inhibition measured after 24 to 72 hrs by MTT assay. The assay is classed as functional, cell-based.
Assay [15] relates to Escherichia coli. Description: Antibacterial activity against Escherichia coli assessed as bacterial growth inhibition by agar cup diffusion assay. The assay is classed as functional.
Assay [16] concerns Pseudomonas aeruginosa. The experiment in a line: Antibacterial activity against Pseudomonas aeruginosa assessed as bacterial growth inhibition by agar cup diffusion assay. The assay is classed as functional.
Assay [17] concerns Aspergillus niger. The experiment in a line: Antifungal activity against Aspergillus niger assessed as fungal growth inhibition by agar cup diffusion assay. The assay is classed as functional.
The test system of assay [18] is Aspergillus fumigatus. Description: Antifungal activity against Aspergillus fumigatus assessed as fungal growth inhibition by agar cup diffusion assay. The assay is classed as functional.
In assay [19] the test system is Mycobacterium tuberculosis. Description: Antimycobacterial activity against Mycobacterium tuberculosis H37Rv assessed as bacterial growth inhibition by broth microdilution assay. The assay is classed as functional.
The test system of assay [20] is Staphylococcus aureus. Description: Antibacterial activity against Staphylococcus aureus assessed as bacterial growth inhibition measured after 16 to 24 hrs by broth microdilution assay. The assay is classed as functional. To be noted: time 16-24 hrs.
Assay [21] deals with Staphylococcus aureus. The experiment in a line: Antibacterial activity against methicillin resistant Staphylococcus aureus assessed as bacterial growth inhibition measured after 16 to 24 hrs by broth microdilution assay. The assay is classed as functional. The following applies: time 16-24 hrs.
The test system of assay [22] is Enterococcus. The experiment in a line: Antibacterial activity against vancomycin resistant Enterococcus assessed as bacterial growth inhibition measured after 16 to 24 hrs by broth microdilution assay. The assay is classed as functional. To be noted: time 16-24 hrs.
The test system of assay [23] is Streptococcus agalactiae. Description: Antibacterial activity against Streptococcus agalactiae assessed as bacterial growth inhibition measured after 16 to 24 hrs by broth microdilution assay. The assay is classed as functional. The following applies: time 16-24 hrs.
Assay [24] deals with Haemophilus influenzae. Description: Antibacterial activity against Haemophilus influenzae assessed as bacterial growth inhibition measured after 16 to 24 hrs by broth microdilution assay. The assay is classed as functional. To be noted: time 16-24 hrs.
Assay [25] has as its system Staphylococcus aureus. The experiment in a line: Antibacterial activity against clinical isolate methicillin resistant Staphylococcus aureus assessed as bacterial growth inhibition by microdilution assay. The assay is classed as functional.
For assay [26], the system named is Staphylococcus aureus. The experiment in a line: Antibacterial activity against Staphylococcus aureus ATCC 25923 assessed as bacterial growth inhibition by microdilution assay. The assay is classed as functional.
The subject of assay [27] is Klebsiella pneumoniae. The experiment in a line: Antibacterial activity against Klebsiella pneumoniae assessed as bacterial growth inhibition by agar cup diffusion assay. The assay is classed as functional.
In assay [28] the test system is Staphylococcus aureus. The experiment in a line: Antibacterial activity against Staphylococcus aureus assessed as bacterial growth inhibition by agar cup diffusion assay. The assay is classed as functional.
The test system of assay [29] is Mycobacterium tuberculosis. The experiment in a line: Antimycobacterial activity against Mycobacterium tuberculosis H37Rv assessed as bacterial growth inhibition by agar cup diffusion assay. The assay is classed as functional.
In assay [30] the test system is Mycobacterium tuberculosis. Description: Antimycobacterial activity against pan sensitive Mycobacterium tuberculosis R2012-123 assessed as bacterial growth inhibition by agar cup diffusion assay. The assay is classed as functional.
Assay [31] concerns Staphylococcus aureus. Description: Antibacterial activity against Staphylococcus aureus ATCC 25923 assessed as bacterial growth inhibition measured after 18 to 24 hrs by agar dilution assay. The assay is classed as functional. To be noted: time 18-24 hrs.
Assay [32] concerns Staphylococcus aureus. Description: Potency index, ratio of ciprofloxacin MIC to test compound MIC for antibacterial activity against Staphylococcus aureus ATCC 25923 assessed as bacterial growth inhibition measured after 18 to 24 hrs by agar dilution assay. The assay is classed as functional. The following applies: time 18-24 hrs.
In assay [33] the test system is Staphylococcus aureus. The experiment in a line: Antibacterial activity against methicillin resistant Staphylococcus aureus assessed as bacterial growth inhibition by agar cup diffusion assay. The assay is classed as functional.

Values after ≈ are worked out from the molar mass of the structure shown. Some results are limits rather than exact numbers.

Take `Cc1c(F)c(N2CCNC(C)C2)cc2c1c(=O)c(C(=O)O)cn2C1CC1` (stereo unspecified) [GREPAFLOXACIN]: the MIC in assay [1], in assay [2] and in assay [3] was 0.5 µg/mL (≈ 1.39 µM) throughout.
With `C#CCSc1nnc(-c2cn(CC)c3cc(N4CCN(C(=O)C(O)(CC(=O)O)CC(=O)O)CC4)c(F)cc3c2=O)o1`, the MIC was determined as 1.61 µg/mL (≈ 2.74 µM) in [4]; 1.61 µg/mL (≈ 2.74 µM) in [5]; 1.61 µg/mL (≈ 2.74 µM) in assay [6]; 1.47 µg/mL (≈ 2.5 µM) in [7]; 2.18 µg/mL (≈ 3.71 µM) in assay [8].
Turning to `CC(=O)C(C(C)=O)C(=O)c1cn(C2CC2)c2cc(N3CCN(/N=N/c4nc(C)cc(C)n4)CC3)c(F)cc2c1=O`, the MIC in assay [9], in [10] and in [11] was 0.015 µg/mL (≈ 0.0274 µM) each time.
By IC50 is commonly meant the concentration at which inhibition is half-maximal. Turning to `COc1cccc2c1C(=O)c1c(O)c3c(c(O)c1C2=O)C[C@@](O)(C(=O)CO)C[C@@H]3O[C@H]1C[C@H](N)[C@H](O)[C@H](C)O1` [DOXORUBICIN], the IC50 in assay [12], in assay [13] and in [14] was 259 nM throughout.
For `Nc1ccc(-c2nnc(-c3cn(C4CC4)c4cc(N5CCNCC5)c(F)cc4c3=O)o2)c(O)c1`, the MIC worked out at 0.3 µg/mL (≈ 0.649 µM) in assay [15], 0.3 µg/mL (≈ 0.649 µM) in assay [16], 9.8 µg/mL (≈ 21.2 µM) in assay [17] and 9.8 µg/mL (≈ 21.2 µM) in assay [18].
Take `NNC(=O)c1ccncc1` [ISONIAZID]: the MIC in [19] was found to be 1.5 µg/mL (≈ 10.9 µM).
As for `CC(=O)NC[C@H]1CN(c2ccc(N3CCOCC3)c(F)c2)C(=O)O1` [LINEZOLID], the MIC in assay [20], in assay [21], in assay [22], in [23] and in assay [24] was 1 µg/mL (≈ 2.96 µM) each time.
`COc1c(N2C[C@H]3CCCN(S(=O)(=O)c4ccc(Cl)cc4)[C@H]3C2)c(F)cc2c(=O)c(C(=O)O)cn(C3CC3)c12`: the MIC in assay [25] and in [26] was < 2.64 µg/mL each time.
Turning to `C=CCn1c(SCC(=O)N2CCN(c3cc4c(cc3F)c(=O)c(C(=O)O)cn4C3CC3)CC2)nnc1-c1ccccc1`, the MIC was determined as 1.7 µg/mL (≈ 2.89 µM) in [15]; 1.7 µg/mL (≈ 2.89 µM) in assay [27]; 1.7 µg/mL (≈ 2.89 µM) in [28]; 4 µg/mL (≈ 6.8 µM) in assay [29]; 4 µg/mL (≈ 6.8 µM) in [30].
Turning to `CCOC(=O)c1cn(C2CC2)c2cc(N3CCN(Cc4cn(-c5ccc(C(C)=O)cc5)nn4)CC3)c(F)cc2c1=O`, the MIC in assay [31] stood at 3.12 µg/mL (≈ 5.59 µM). In addition, in assay [32], the Ratio worked out at 2.
`O=C(O)c1cn(C2CC2)c2cc(N3CCN(C(=O)CN4C(=O)S/C(=C\c5ccco5)C4=O)CC3)c(F)cc2c1=O`: the MIC worked out at 0.005 µg/mL (≈ 0.00883 µM) in assay [28] and 0.22 µg/mL (≈ 0.388 µM) in [33].
As for `Nc1ccc(-c2nnc(-c3cn(C4CC4)c4cc(C(=O)c5ncc[nH]5)c(F)cc4c3=O)o2)c(O)c1`, the MIC was 0.2 µg/mL (≈ 0.423 µM) in assay [15], 0.2 µg/mL (≈ 0.423 µM) in assay [16], 9.8 µg/mL (≈ 20.7 µM) in [17] and 9.8 µg/mL (≈ 20.7 µM) in assay [18].
Consider `COC(=O)c1cn(C2CC2)c2cc(N3CCN(Cc4cn(-c5ccc(C(C)=O)cc5)nn4)CC3)c(F)cc2c1=O`, for which the MIC in [31] worked out at 3.12 µg/mL (≈ 5.73 µM). For the same compound, in assay [32], the Ratio is recorded as 2.

The values are drawn from ChEMBL document CHEMBL5360532, “Current scenario of quinolone hybrids with potential antibacterial activity against ESKAPE pathogens” (Eur J Med Chem, 2023).
